The term inhibition denotes the relative decrease from the control value, in per cent. As usually defined, the melting point is the temperature of the solid-liquid transition.

Each structure is given as a SMILES string.

The target of one series is T1, human PDE4B1 (Homo sapiens, UniProt Q07343).
T1 construct: host or cells: Sf9 cells
T1 sequence (Q07343 whole entry): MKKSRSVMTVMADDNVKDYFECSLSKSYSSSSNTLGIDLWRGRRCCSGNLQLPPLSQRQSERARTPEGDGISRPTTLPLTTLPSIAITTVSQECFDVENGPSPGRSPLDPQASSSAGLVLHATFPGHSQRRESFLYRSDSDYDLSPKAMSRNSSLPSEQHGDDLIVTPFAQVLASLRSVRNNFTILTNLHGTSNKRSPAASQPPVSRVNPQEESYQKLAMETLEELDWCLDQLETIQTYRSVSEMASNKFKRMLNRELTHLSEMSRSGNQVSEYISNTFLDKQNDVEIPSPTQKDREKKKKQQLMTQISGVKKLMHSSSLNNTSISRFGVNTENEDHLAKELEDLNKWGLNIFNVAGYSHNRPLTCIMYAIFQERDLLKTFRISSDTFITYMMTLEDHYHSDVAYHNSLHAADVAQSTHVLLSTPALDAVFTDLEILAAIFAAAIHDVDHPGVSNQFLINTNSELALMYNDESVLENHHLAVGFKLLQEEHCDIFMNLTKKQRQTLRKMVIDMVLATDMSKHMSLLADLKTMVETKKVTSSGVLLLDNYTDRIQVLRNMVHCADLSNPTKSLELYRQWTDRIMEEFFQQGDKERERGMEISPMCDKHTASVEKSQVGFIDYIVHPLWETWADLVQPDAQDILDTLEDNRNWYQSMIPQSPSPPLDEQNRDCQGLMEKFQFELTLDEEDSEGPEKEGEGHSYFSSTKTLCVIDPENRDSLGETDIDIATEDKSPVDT
Nature of the series: cAMP HTRF assay to determine the activity of hPDE4B1. In kind it is biochemical. To be noted: test substrate concentration of 1 μM, read-out: Inhibition of PDE4B, Inhibition in %. As for the experimental part:
cAMP HTRF® Assay to Determine the Activity of hPDE4B1
The inhibiting effect of the compounds on the enzyme activity of human PDE4B1 was measured by the quantification of 5′-adenosine monophosphate (5′-AMP), which is formed from 3′,5′-cyclic adenosine monophosphate (cAMP). Human recombinant enzyme, expressed in Sf9 cells, and the HTRF (homogeneous time-resolved fluorescence) detection method were used in the assay.
The test compound or water (control) was mixed with the human recombinant PDE4B1 enzyme (4.8 U) in a buffer consisting of 44.4 mM tris-HCl, 5.28 mM MgCl2, 2.64 mM DTT and 0.044% Tween 20 (pH 7.8). After adding the cAMP enzyme substrate (final concentration 40 nM), the mixture was incubated for 30 minutes at room temperature. Then a fluorescence acceptor (Dye2 marked with cAMP), a fluorescence donor (anti-cAMP antibody marked with a europium cryptate) and the non-specific phosphodiesterase inhibitor IBMX (3-isobutyl-1-methylxanthine; final concentration 1 mM) were added. After 60 minutes the fluorescence transfer, which correlates with the amount of remaining cAMP, was measured with a microplate reader (Rubystar, BMG) at λex=337 nm, λem=620 nm and λem=665 nm. The enzyme activity was calculated from the quotient formed from the measured signal at 665 nm and that at 620 nm. The result was expressed as the percentage inhibition of enzyme activity of the control (without PDE4 inhibitor). The enzyme was omitted for measurement of the basal control. IC50 values (IC50=concentration causing a half-maximal inhibition of control specific activity) were derived from dose response measurements with eight different concentrations (n=2; N=1-3).
Literature: N. Saldou et al., Comparison of recombinant human PDE4 isoforms: interaction with substrate and inhibitors, Cell. Signal. Vol. 10, No. 6, 427-440, 1998
Regarding `O=C(c1ccc2c(C3CC3)nn(-c3ncc(-c4ccccc4)cn3)c2c1)N1CCOCC1` [Compound No. 14, (3-Cyclopropyl-1-(5-phenylpyrimidin-2-yl)-1H-indazol-6-yl)(morpholino)-methanone], the inhibition at 1 µM was 92%.
For the compound `O=C1CN(C(=O)c2ccc3c(C4CC4)nn(-c4ncc(-c5ccccc5)cn4)c3c2)CCN1` [Compound No. 15, 4-(3-Cyclopropyl-1-(5-phenylpyrimidin-2-yl)-1H-indazole-6-carbonyl)piperazin-2-one], the inhibition at 1 µM was 96%.
Take `O=C(c1cc2c(cn1)c(C1CC1)nn2-c1ncc(-c2ccccc2F)cn1)N1CCCCC1` [compound 42, (3-Cyclopropyl-1-(5-(2-fluorophenyl)pyrimidin-2-yl)-1H-pyrazolo[4,3-c]pyridin-6-yl)(piperidin-1-yl)methanone]: the inhibition at 1 µM was found to be 39%.
Still for that read-out and setting: with `COCCCNC(=O)c1cc2c(cn1)c(C1CC1)nn2-c1ncc(-c2ccccc2F)cn1` [compound 43, 3-Cyclopropyl-1-(5-(2-fluorophenyl)pyrimidin-2-yl)-N-(3-methoxypropyl)-1H-pyrazolo[4,3-c]pyridine-6-carboxamide] the figure was 44%; with `CC1COCCN1C(=O)c1cc2c(cn1)c(C1CC1)nn2-c1ncc(-c2ccccc2F)cn1` (stereo not shown) [compound 44, (3-Cyclopropyl-1-(5-(2-fluorophenyl)pyrimidin-2-yl)-1H-pyrazolo[4,3-c]pyridin-6-yl)(3-methylmorpholino)methanone], 61%.
On the same count and under the same terms, with `O=C(NC1CCOCC1)c1cc2c(cn1)c(C1CC1)nn2-c1ncc(-c2ccccc2F)cn1` [compound 45, 3-Cyclopropyl-1-(5-(2-fluorophenyl)pyrimidin-2-yl)-N-(tetrahydro-2H-pyran-4-yl)-1H-pyrazolo[4,3-c]pyridine-6-carboxamide] the figure was 27%; with `O=C(NCC1(O)CCC1)c1cc2c(cn1)c(C1CC1)nn2-c1ncc(-c2ccccc2F)cn1` [compound 46, 3-Cyclopropyl-1-(5-(2-fluorophenyl)pyrimidin-2-yl)-N-((1-hydroxycyclobutyl)methyl)-1H-pyrazolo[4,3-c]pyridine-6-carboxamide], 31%; with `O=C(NCCn1cncn1)c1cc2c(cn1)c(C1CC1)nn2-c1ncc(-c2ccccc2F)cn1` [compound 47, N-(2-(1H-1,2,4-Triazol-1-yl)ethyl)-3-cyclopropyl-1-(5-(2-fluorophenyl)pyrimidin-2-yl)-1H-pyrazolo[4,3-c]pyridine-6-carboxamide], 67%.
`COC[C@@H]1CCCN1C(=O)c1cc2c(cn1)c(C1CC1)nn2-c1ncc(-c2ccccc2F)cn1` [compound 48, (S)-(3-Cyclopropyl-1-(5-(2-fluorophenyl)pyrimidin-2-yl)-1H-pyrazolo[4,3-c]pyridin-6-yl)(2-(methoxymethyl)pyrrolidin-1-yl)methanone]: the inhibition at 1 µM amounted to 43%.
As for `CC1COCC(C)N1C(=O)c1cc2c(cn1)c(C1CC1)nn2-c1ncc(-c2ccccc2F)cn1` (stereo not shown) [compound 49, (3-Cyclopropyl-1-(5-(2-fluorophenyl)pyrimidin-2-yl)-1H-pyrazolo[4,3-c]pyridin-6-yl)(3,5-dimethylmorpholino)methanone], the inhibition at 1 µM worked out at 54%.

In a further series the target is T1, human PDE4B1. Nature of the series: TR-FRET assay using the LANCE Ultra cAMP kit to determine the activity of hPDE4B1. In kind it is biochemical. Particulars: test substrate concentration of 10 μM, read-out: Inhibition of PDE4B, Inhibition in %. From the text: TR-FRET Assay Using the LANCE® Ultra cAMP Kit to Determine the Activity of hPDE4B1
The effects of the compounds on the activity of the human PDE4B1 was quantified by measuring the production of 5′AMP from cAMP using a human recombinant enzyme expressed in Sf9 cells and the LANCE® Ultra cAMP kit, a TR-FRET detection method from PerkinElmer. The human PDE4B1 enzyme was purchased from SignalChem Lifesciences (Catalog #P92-31BG, Lot #H296-2).
The test compound, reference compound or water (control) was mixed with the enzyme (0.96 U) in a reaction buffer containing 50 mM Tris-HCl, 50 mM MgCl2 and 5 mM DTT (pH 8.5). Thereafter, the reaction was initiated by addition of 500 nM cAMP (substrate) and the mixture was incubated for 30 minutes at room temperature. For control basal measurements, the enzyme was omitted from the reaction mixture. After 30 minutes, the reaction was stopped and diluted by a factor of 100 with the reaction buffer supplemented with 500 μM IBMX. The fluorescence donor (europium chelate-labeled cAMP) and the fluorescence acceptor (anti-cAMP antibody labeled with the ULight™ dye) were then added together with 500 μM IBMX to a 10 μl aliquot. After 60 minutes, the fluorescence transfer corresponding to the amount of residual cAMP was measured at λex=337 nm, λem=620 nm and λem=665 nm using a microplate reader (PHERAstar, BMG). The enzyme activity was determined by dividing the signal measured at 665 nm by that measured at 620 nm (ratio) multiplied by 10000. The results were expressed as percent inhibition of the control enzyme activity. IC50 values (IC50=concentration causing a half-maximal inhibition of control specific activity) were derived from dose response measurements with ten different concentrations (n=3; N=1-3).
Background: Time-resolved FRET reads energy transfer from a long-lived donor to a nearby acceptor.
As for `Cc1ccc(F)c(-c2cnc(-n3nc([S+](C)[O-])c4ccc(C(=O)N5CCOCC5)cc43)nc2)c1` (single isomer, unassigned) [Compound No. 65, (1-(5-(2-Fluoro-5-methylphenyl)pyrimidin-2-yl)-3-(methylsulfinyl)-1H-indazol-6-yl)(morpholino)methanone], the inhibition at 10 µM is 100%.
The same measure, in the same setting: the same measure for `Cc1ccc(F)c(-c2cnc(-n3nc([S+](C)[O-])c4ccc(C(=O)N5CCOCC5)cc43)nc2)c1` (stereo not shown) [Compound No. 32, (1-(5-(2-Fluoro-5-methylphenyl)pyrimidin-2-yl)-3-(methylsulfinyl)-1H-indazol-6-yl)(morpholino)methanone]: 96%; for `Cc1ccc(F)c(-c2cnc(-n3nc(S(C)(=O)=O)c4ccc(C(=O)N5CCOCC5)cc43)nc2)c1` [Compound No. 33, (1-(5-(2-Fluoro-5-methylphenyl)pyrimidin-2-yl)-3-(methylsulfonyl)-1H-indazol-6-yl)(morpholino)methanone]: 102%.
Regarding `Cc1ccc(F)c(-c2cnc(-n3nc(C(C)O)c4ccc(C(=O)N5CCOCC5)cc43)nc2)c1` (stereo not shown) [Compound No. 34, (1-(5-(2-Fluoro-5-methylphenyl)pyrimidin-2-yl)-3-(1-hydroxyethyl)-1H-indazol-6-yl)(morpholino)methanone], the inhibition at 10 µM is 107%.
Still for that read-out and setting: the same measure for `Cc1ccc(F)c(-c2cnc(-n3nc(C(C)O)c4ccc(C(=O)N(C)CCO)cc43)nc2)c1` (stereo not shown) [Compound No. 66, 1-(5-(2-Fluoro-5-methylphenyl)pyrimidin-2-yl)-3-(1-hydroxyethyl)-N-(2-hydroxyethyl)-N-methyl-1H-indazole-6-carboxamide]: 105%; for `Cc1ccc(F)c(-c2cnc(-n3nc(C(C)O)c4ccc(C(=O)N(C)CC(N)=O)cc43)nc2)c1` (stereo not shown) [Compound No. 67, N-(2-Amino-2-oxoethyl)-1-(5-(2-fluoro-5-methylphenyl)pyrimidin-2-yl)-3-(1-hydroxyethyl)-N-methyl-1H-indazole-6-carboxamide]: 90%; for `CCc1ccc(F)c(-c2cnc(-n3nc(C(C)O)c4ccc(C(=O)N(C)CC(N)=O)cc43)nc2)c1` (stereo not shown) [Compound No. 68, N-(2-Amino-2-oxoethyl)-1-(5-(5-ethyl-2-fluorophenyl)pyrimidin-2-yl)-3-(1-hydroxyethyl)-N-methyl-1H-indazole-6-carboxamide]: 106%.
Turning to `CCc1ccc(F)c(-c2cnc(-n3nc(C(C)O)c4ccc(C(=O)N5CCOCC5)cc43)nc2)c1` (stereo not shown) [Compound No. 69, (1-(5-(5-Ethyl-2-fluorophenyl)pyrimidin-2-yl)-3-(1-hydroxyethyl)-1H-indazol-6-yl)(morpholino)methanone], the inhibition at 10 µM is 77%.
Take `Cc1ccnc(-c2cnc(-n3nc(C(C)O)c4ccc(C(=O)N5CCOCC5)cc43)nc2)c1` (stereo not shown) [Compound No. 70]: the inhibition at 10 µM turned out to be 105%.
Take `COc1ccnc(-c2cnc(-n3nc(C(C)O)c4ccc(C(=O)N5CCOCC5)cc43)nc2)c1` (stereo not shown) [Compound No. 71, (3-(1-Hydroxyethyl)-1-(5-(4-methoxypyridin-2-yl)pyrimidin-2-yl)-1H-indazol-6-yl)(morpholino)methanone]: the inhibition at 10 µM is 108%.
Regarding `CC(O)c1nn(-c2ncc(-c3cc(C4CC4)ccn3)cn2)c2cc(C(=O)N3CCOCC3)ccc12` (stereo not shown) [Compound No. 73, (1-(5-(4-Cyclopropylpyridin-2-yl)pyrimidin-2-yl)-3-(1-hydroxyethyl)-1H-indazol-6-yl)(morpholino)methanone], the inhibition at 10 µM stood at 105%.
On to `CCOc1ccc(F)c(-c2cnc(-n3nc(C(C)O)c4ccc(C(=O)N5CCOCC5)cc43)nc2)c1` (stereo not shown) [Compound No. 74, (1-(5-(5-Ethoxy-2-fluorophenyl)pyrimidin-2-yl)-3-(1-hydroxyethyl)-1H-indazol-6-yl)(morpholino)methanone], for which the inhibition at 10 µM was 102%.
Same read-out and setting: the same measure for `CC(O)c1nn(-c2ncc(-c3cccc(C4CC4)c3)cn2)c2cc(C(=O)N3CCOCC3)ccc12` (stereo not shown) [Compound No. 76, (1-(5-(3-Cyclopropylphenyl)pyrimidin-2-yl)-3-(1-hydroxyethyl)-1H-indazol-6-yl)(morpholino)methanone]: 102%.

System in the next series: not given
Experiment: not given
Details: not given
On to `O=C(c1ccc2c(C3CC3)nn(-c3ncc(-c4ccccc4)cn3)c2c1)N1CCOCC1` [Compound No. 14, (3-Cyclopropyl-1-(5-phenylpyrimidin-2-yl)-1H-indazol-6-yl)(morpholino)-methanone], for which the melting point was 218 to 222 °C.
Take `O=C1CN(C(=O)c2ccc3c(C4CC4)nn(-c4ncc(-c5ccccc5)cn4)c3c2)CCN1` [Compound No. 15, 4-(3-Cyclopropyl-1-(5-phenylpyrimidin-2-yl)-1H-indazole-6-carbonyl)piperazin-2-one]: the melting point is 175 to 179 °C.

For the origin of these results see patent US9546158B2, “2,5-substituted pyrimidines” (Grünenthal GmbH, priority 2014, dated 2017).
